Assay results as given in patent US7375259B1, “Solanum tuberosum sterol alkaloid glycosyltransferase (SGT) a novel solanidine glucosyltransferase SGT2 and uses thereof” (priority 2005, dated 2008).

Key:
[1] = tested on: recombinant SGT2; test: in vitro solanidine glycosyltransferase assay of recombinant SGT2 with Solanaceous aglycones and UDP-[3H]sugar donors; conditions: for SGT2 galactosyltransferase activity with aglycone substrate: UDP-[3H]galactose as sugar donor, activity threshold 2-fold the reaction blank; for SGT2 glucosyltransferase activity with aglycone substrate: UDP-[3H]glucose as sugar donor, 60 min, 37° C., SGAs and UDP-sugars 33 μM
[2] = tested on: SGT2; format: biochemical, Solanum tuberosum; conditions: 1,000 μM inhibitor
[3] = tested on: Colorado potato beetle; conditions: artificial diets; Kowalski et al. 1999; cited from earlier work

| Structure (SMILES) | SGT2 galactosyltransferase activity with aglycone substrate [1] | SGT2 glucosyltransferase activity with aglycone substrate [1] | inhibition of SGT2 activity (in words) [2] | inhibition of SGT2 activity [2] | toxicity to the Colorado potato beetle [3] |
| --- | --- | --- | --- | --- | --- |
| C[C@H]1CC[C@@H]2[C@@H](C)[C@H]3[C@H](C[C@H]4[C@@H]5CC=C6C[C@@H](O)CC[C@]6(C)[C@H]5CC[C@]34C)N2C1 [solanidine] | No activity | maximum activity |  |  |  |
| C[C@@H]1CC[C@@]2(NC1)O[C@H]1C[C@H]3[C@@H]4CC=C5C[C@@H](O)CC[C@]5(C)[C@H]4CC[C@]3(C)[C@H]1[C@@H]2C [solasodine] | No activity | readily capable of utilizing UDP-glucose as a substrate |  |  |  |
| C[C@H]1CC[C@]2(NC1)O[C@H]1C[C@H]3[C@@H]4CC[C@H]5C[C@@H](O)CC[C@]5(C)[C@H]4CC[C@]3(C)[C@H]1[C@@H]2C [tomatidine] | No activity | readily capable of utilizing UDP-glucose as a substrate |  |  |  |
| C[C@H]1CC[C@@H]2[C@@H](C)[C@H]3[C@H](C[C@H]4[C@@H]5CC=C6C[C@@H](O[C@@H]7O[C@H](CO)[C@H](O[C@@H]8O[C@@H](C)[C@H](O)[C@@H](O)[C@H]8O)[C@H](O)[C@@H]7O[C@@H]7O[C@@H](C)[C@@H](O)[C@@H](O)[C@H]7O)CC[C@]6(C)[C@H]5CC[C@]34C)N2C1 [α-chaconine] |  |  | completely inhibited |  |  |
| C[C@H]1CC[C@@H]2[C@@H](C)[C@H]3[C@H](C[C@H]4[C@@H]5CC=C6C[C@@H](O[C@@H]7O[C@H](CO)[C@H](O)[C@H](O[C@@H]8O[C@H](CO)[C@@H](O)[C@H](O)[C@H]8O)[C@H]7O[C@@H]7O[C@@H](C)[C@H](O)[C@@H](O)[C@H]7O)CC[C@]6(C)[C@H]5CC[C@]34C)N2C1 [α-solanine] |  |  |  | 39% | more toxic |
